Laboratory results reported in ChEMBL document CHEMBL5728961, “Compounds useful for treating gastrointestinal tract disorders” (2022).

Assays:
[1] = target: T1, Sodium/hydrogen exchanger 3 (Homo sapiens, UniProt P48764); test: Cell-Based Assay of NHE-3 Activity (Persistent Inhibition): The ability of compounds to inhibit human and rat NHE-3-mediated Na+ dependent H+ antiport after application and washout was measured using a modification of the pH sensitive dye method described above. PS120 fibroblasts stably expressing human NHE3 and NHERF2 were obtained from Mark Donowitz (Baltimore, Md.). Opossum kidney (OK) cells were obtained from the ATCC and propagated per their instructions. The rat NHE-3 gene was introduced into OK cells via electroporation, and cells were seeded into 96 well plates and grown overnight. Medium was aspirated from the wells, cells were washed once with NaCl-HEPES buffer (100 mM NaCl, 50 mM HEPES, 10 mM glucose, 5 mM KCl, 2 mM CaCl2, 1 mM MgCl2, pH 7.4), then overlayed with NaCl-HEPES buffer containing 0-30 μM test compound. After a 60 min incubation at room temperature, the test drug containing buffer was aspirated from the cells. Following aspiration, cells were washed once with NaCl-HEPES buffer without drug, then incubated for 30 min at 37° C. with NH4Cl-HEPES buffer (20 mM NH4Cl, 80 mM NaCl, 50 mM HEPES, 5 mM KCl, 2 mM CaCl2, 1 mM MgCl2, pH 7.4) containing 5 μM BCECF-AM. Cells were washed once with Ammonium free, Na+-free HEPES (100 mM choline, 50 mM HEPES, 10 mM glucose, 5 mM KCl, 2 mM CaCl2, 1 mM MgCl2, pH 7.4) and incubated in the same buffer for 10 minutes at room temperature to lower intracellular pH. NHE-3-mediated recovery of neutral intracellular pH was initiated ([…]) by addition of Na-HEPES buffer. […] Changes in intracellular pH were monitored using a FLIPR Tetra® (Molecular Devices, Sunnyvale, Calif.) by excitation at λex 439 to 505 nm, and measuring BCECF fluorescence at λem 538 nm. The initial rate of the fluorescence ratio change was used as a measure of NHE-mediated Na+/H+ activity, and reported as the change in fluorescence ratio per minute.
T1 sequence (P48764 whole entry): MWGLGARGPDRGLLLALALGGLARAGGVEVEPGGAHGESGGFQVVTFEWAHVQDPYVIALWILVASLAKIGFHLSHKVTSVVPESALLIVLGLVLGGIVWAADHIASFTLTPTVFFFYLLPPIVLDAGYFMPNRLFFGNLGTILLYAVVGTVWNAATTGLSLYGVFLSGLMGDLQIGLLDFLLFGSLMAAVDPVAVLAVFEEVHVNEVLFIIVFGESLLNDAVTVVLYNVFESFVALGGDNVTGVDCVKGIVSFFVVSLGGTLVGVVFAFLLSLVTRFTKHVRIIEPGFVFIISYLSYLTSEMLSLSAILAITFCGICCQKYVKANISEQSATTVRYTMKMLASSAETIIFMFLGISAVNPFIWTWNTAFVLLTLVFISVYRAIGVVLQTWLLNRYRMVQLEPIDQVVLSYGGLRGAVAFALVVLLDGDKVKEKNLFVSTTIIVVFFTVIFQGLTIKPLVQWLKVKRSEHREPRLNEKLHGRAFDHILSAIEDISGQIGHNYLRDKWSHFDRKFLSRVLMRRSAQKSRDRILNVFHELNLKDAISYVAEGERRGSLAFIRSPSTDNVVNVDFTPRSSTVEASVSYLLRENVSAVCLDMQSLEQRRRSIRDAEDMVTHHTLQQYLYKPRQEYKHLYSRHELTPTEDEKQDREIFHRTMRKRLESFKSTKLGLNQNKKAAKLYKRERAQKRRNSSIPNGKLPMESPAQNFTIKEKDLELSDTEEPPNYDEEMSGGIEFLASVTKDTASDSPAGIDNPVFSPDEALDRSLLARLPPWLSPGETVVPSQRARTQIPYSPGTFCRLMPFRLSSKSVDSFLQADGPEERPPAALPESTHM

[2] = target: T1, Sodium/hydrogen exchanger 3; test: Cell-Based Assay of NHE-3 Activity (Pre-Incubation Inhibition): Rat and human NHE-3-mediated Na+-dependent H+ antiport was measured using a modification of the pH sensitive dye method originally reported by Paradiso (Proc. Natl. Acad. Sci. USA. (1984) 81(23): 7436-7440). PS120 fibroblasts stably expressing human NHE3 and NHERF2 were obtained from Mark Donowitz (Baltimore, Md.). Opossum kidney (OK) cells were obtained from the ATCC and propagated per their instructions. The rat NHE-3 gene (GenBank M85300) was introduced into OK cells via electroporation, and cells were seeded into 96 well plates and grown overnight. Medium was aspirated from the wells then incubated for 30 min at 37° C. with NH4Cl-HEPES buffer (20 mM NH4Cl, 80 mM NaCl, 50 mM HEPES, 5 mM KCl, 2 mM CaCl2, 1 mM MgCl2, pH 7.4) containing 5 μM BCECF-AM. Cells were washed once with Ammonium free, Na+-free HEPES (100 mM choline, 50 mM HEPES, 10 mM glucose, 5 mM KCl, 2 mM CaCl2, 1 mM MgCl2, pH 7.4) and incubated in the same buffer for 10 minutes at room temperature to lower intracellular pH with 0-30 μM test compound. […] Changes in intracellular pH were monitored using a FLIPR Tetra® (Molecular Devices, Sunnyvale, Calif.) by excitation at λex 439 to 505 nm, and measuring BCECF fluorescence at λem 538 nm. The initial rate of the fluorescence ratio change was used as a measure of NHE-mediated Na+/H+ activity, and reported as the change in fluorescence ratio per minute.

SMILES | IC50 [1] [nM] | IC50 [2] [nM]
Cc1cc(S(=O)(=O)N2CC[C@@H](COCCOCCNC(=O)NCCCCNC(=O)NCCOCCOC[C@@H]3CCN(S(=O)(=O)c4ccc(O[C@H]5c6cc(Cl)cc(C#N)c6C[C@@H]5N(C)C)c(C)c4)C3)C2)ccc1O[C@H]1c2cc(Cl)cc(C#N)c2C[C@@H]1N(C)C | < 100 | < 100
CN(C)[C@H]1Cc2c(Cl)cc(Cl)cc2[C@@H]1Oc1ccc(S(=O)(=O)NCCCCCCCCNC(=O)NCCCCNC(=O)NCCCCCCCCNS(=O)(=O)c2ccc(O[C@H]3c4cc(Cl)cc(Cl)c4C[C@@H]3N(C)C)cc2)cc1 | > 1000 | > 1000
N[C@@H]1CCCN([C@H]2Cc3c(Cl)cc(Cl)cc3[C@@H]2Oc2ccc(S(=O)(=O)NCCCCCCn3cc(CNC(=O)NCCCCNC(=O)NCc4cn(CCCCCCNS(=O)(=O)c5ccc(O[C@H]6c7cc(Cl)cc(Cl)c7C[C@@H]6N6CCC[C@@H](N)C6)cc5)nn4)nn3)cc2)C1 | < 100 | < 100
O=C(NCCCCNC(=O)NCCOCCOCCNS(=O)(=O)c1ccc(O[C@H]2c3cc(Cl)cc(Cl)c3C[C@@H]2N2C3CCCC2CC3)cc1)NCCOCCOCCNS(=O)(=O)c1ccc(O[C@H]2c3cc(Cl)cc(Cl)c3C[C@@H]2N2C3CCCC2CC3)cc1 | < 100 | < 100
N[C@@H]1CCCN([C@H]2Cc3c(Cl)cc(Cl)cc3[C@@H]2Oc2ccc(S(=O)(=O)NCCOCCOCCNC(=O)NCCCCNC(=O)NCCOCCOCCNS(=O)(=O)c3ccc(O[C@H]4c5cc(Cl)cc(Cl)c5C[C@@H]4N4CCC[C@@H](N)C4)c(F)c3)cc2F)C1 | < 100 | < 100
Cc1cc(Cl)cc2c1C[C@H](N(C)C)[C@H]2Oc1ccc(S(=O)(=O)NCCOCCOCCNC(=O)NCCCCNC(=O)NCCOCCOCCNS(=O)(=O)c2ccc(O[C@H]3c4cc(Cl)cc(C)c4C[C@@H]3N(C)C)c(F)c2)cc1F | < 100 | < 100
Cc1cc(S(=O)(=O)NCCCCCCCCNC(=O)NCCCCNC(=O)NCCCCCCCCNS(=O)(=O)c2ccc(O[C@H]3c4cc(Cl)cc(Cl)c4C[C@@H]3N(C)C)c(C)c2)ccc1O[C@H]1c2cc(Cl)cc(Cl)c2C[C@@H]1N(C)C | > 1000 | > 1000
Cc1cc(Cl)cc2c1C[C@H](N1CCNCC1)[C@H]2Oc1ccc(S(=O)(=O)NCCOCCOCCNC(=O)NCCCCNC(=O)NCCOCCOCCNS(=O)(=O)c2ccc(O[C@H]3c4cc(Cl)cc(C)c4C[C@@H]3N3CCNCC3)cc2)cc1 | < 100 | < 100
CN(C)[C@@H]1CCCN([C@H]2Cc3c(C#N)cc(Cl)cc3[C@@H]2Oc2ccc(S(=O)(=O)NCCOCCOCCNC(=O)NCCCCNC(=O)NCCOCCOCCNS(=O)(=O)c3ccc(O[C@H]4c5cc(Cl)cc(C#N)c5C[C@@H]4N4CCC[C@@H](N(C)C)C4)c(F)c3)cc2F)C1 | > 1000 | > 1000
Cc1cc(S(=O)(=O)NCCOCCOCCNC(=O)NCCCCNC(=O)NCCOCCOCCNS(=O)(=O)c2ccc(O[C@H]3c4cc(Cl)cc(C)c4C[C@@H]3N3CCC[C@@H](N)C3)c(C)c2)ccc1O[C@H]1c2cc(Cl)cc(C)c2C[C@@H]1N1CCC[C@@H](N)C1 | < 100 | < 100
Cc1cc(Cl)cc2c1C[C@H](N1CCC[C@@H](N)C1)[C@H]2Oc1ccc(S(=O)(=O)NCCOCCOCCNC(=O)NCCCCNC(=O)NCCOCCOCCNS(=O)(=O)c2ccc(O[C@H]3c4cc(Cl)cc(C)c4C[C@@H]3N3CCC[C@@H](N)C3)c(F)c2)cc1F | < 100 | < 100
N[C@@H]1CCCN([C@H]2Cc3c(Cl)cc(Cl)cc3[C@@H]2Oc2c(F)cc(S(=O)(=O)NCCOCCOCCNC(=O)NCCCCNC(=O)NCCOCCOCCNS(=O)(=O)c3cc(F)c(O[C@H]4c5cc(Cl)cc(Cl)c5C[C@@H]4N4CCC[C@@H](N)C4)c(F)c3)cc2F)C1 | < 100 | < 100
Cc1cc(S(=O)(=O)NCCOCCOCCNC(=O)NCCCCNC(=O)NCCOCCOCCNS(=O)(=O)c2ccc(O[C@H]3c4cc(Cl)cc(C#N)c4C[C@@H]3N3CCC[C@@H](N)C3)c(C)c2)ccc1O[C@H]1c2cc(Cl)cc(C#N)c2C[C@@H]1N1CCC[C@@H](N)C1 | > 1000 | > 1000
Cc1cc(O[C@H]2c3cc(Cl)cc(Cl)c3C[C@@H]2N2CCC[C@@H](N)C2)c(F)cc1S(=O)(=O)NCCOCCOCCNC(=O)NCCCCNC(=O)NCCOCCOCCNS(=O)(=O)c1cc(F)c(O[C@H]2c3cc(Cl)cc(Cl)c3C[C@@H]2N2CCC[C@@H](N)C2)cc1C | < 100 | < 100
Cc1cc(S(=O)(=O)N[C@@H]2CCN(CCOCCNC(=O)NCCCCNC(=O)NCCOCCN3CC[C@@H](NS(=O)(=O)c4ccc(O[C@H]5c6cc(Cl)cc(C#N)c6C[C@@H]5N(C)C)c(C)c4)C3)C2)ccc1O[C@H]1c2cc(Cl)cc(C#N)c2C[C@@H]1N(C)C | < 100 | < 100
CN(C)[C@@H]1CCCN([C@H]2Cc3c(Cl)cc(Cl)cc3[C@@H]2Oc2ccc(S(=O)(=O)NCCOCCOCCNC(=O)NCCCCNC(=O)NCCOCCOCCNS(=O)(=O)c3ccc(O[C@H]4c5cc(Cl)cc(Cl)c5C[C@@H]4N4CCC[C@@H](N(C)C)C4)c(F)c3)cc2F)C1 | < 100 | < 100
Cc1cc(S(=O)(=O)NCCOCCOCCNC(=O)NCCCCNC(=O)NCCOCCOCCNS(=O)(=O)c2ccc(O[C@H]3c4cc(Cl)cc(Cl)c4C[C@@H]3N3CCC[C@@H](N(C)C)C3)c(C)c2)ccc1O[C@H]1c2cc(Cl)cc(Cl)c2C[C@@H]1N1CCC[C@@H](N(C)C)C1 | < 100 | < 100
Cc1cc(S(=O)(=O)NCCOCCOCCNC(=O)NCCCCNC(=O)NCCOCCOCCNS(=O)(=O)c2cc(C)c(O[C@H]3c4cc(Cl)cc(Cl)c4C[C@@H]3N3CCC[C@@H](N)C3)cc2F)c(F)cc1O[C@H]1c2cc(Cl)cc(Cl)c2C[C@@H]1N1CCC[C@@H](N)C1 | < 100 | < 100
CN(C)[C@H]1Cc2c(cc(Cl)cc2C(F)(F)F)[C@@H]1Oc1ccc(S(=O)(=O)NCCOCCOCCNC(=O)NCCCCNC(=O)NCCOCCOCCNS(=O)(=O)c2ccc(O[C@H]3c4cc(Cl)cc(C(F)(F)F)c4C[C@@H]3N(C)C)cc2)cc1 | > 1000 | > 1000
Cc1cc(Cl)cc2c1C[C@H](N1CCC[C@@H](N)C1)[C@H]2Oc1ccc(S(=O)(=O)NCCOCCOCCNC(=O)NCCCCNC(=O)NCCOCCOCCNS(=O)(=O)c2ccc(O[C@H]3c4cc(Cl)cc(C)c4C[C@@H]3N3CCC[C@@H](N)C3)cc2)cc1 | < 100 | < 100
CN(C)[C@H]1Cc2c(OC(F)(F)F)cc(Cl)cc2[C@@H]1Oc1ccc(S(=O)(=O)NCCOCCOCCNC(=O)NCCCCNC(=O)NCCOCCOCCNS(=O)(=O)c2ccc(O[C@H]3c4cc(Cl)cc(OC(F)(F)F)c4C[C@@H]3N(C)C)cc2)cc1 | > 1000 | > 1000
COc1cc(Cl)cc2c1C[C@H](N1CCC[C@@H](N)C1)[C@H]2Oc1ccc(S(=O)(=O)NCCOCCOCCNC(=O)NCCCCNC(=O)NCCOCCOCCNS(=O)(=O)c2ccc(O[C@H]3c4cc(Cl)cc(OC)c4C[C@@H]3N3CCC[C@@H](N)C3)cc2)cc1 | < 100 | < 100
N#Cc1cc(Cl)cc2c1C[C@H](N1CCC[C@@H](N)C1)[C@H]2Oc1ccc(S(=O)(=O)NCCOCCOCCNC(=O)NCCCCNC(=O)NCCOCCOCCNS(=O)(=O)c2ccc(O[C@H]3c4cc(Cl)cc(C#N)c4C[C@@H]3N3CCC[C@@H](N)C3)cc2)cc1 | < 100 | < 100
